Bounds are passed on as bounds.

Broadly, the melting point is the temperature, or range, at which the solid turns liquid. As for `COc1cc(CC(=O)NCCCc2ccc(C)c(C)c2)ccc1OCCN(CCO)CCO`, the melting point is 54 to 58 °C. Consider `S=C(Nc1ccc(Sc2ccc3ccccc3n2)cc1)Nc1ccc(Cl)c(Cl)c1`, for which the melting point was in the range of 125 to 126 °C. `CCCCCCCCCCCCCCCCC(N)CO` (centres undefined): the melting point is 80.8 to 81.9 °C.

On to `COCC(C)Oc1ccc2c(c1)c(-c1cc3cccnc3[nH]1)cn2C` (centres undefined), for which the melting point fell in the range of 150 to 151 °C.

Compound `Cc1cnc(CNC(=O)c2ccnc(N3CCN(Cc4ccc(F)cc4)C3=O)c2)cn1` showed a melting point of 169 to 171 °C. The same measure for `Cc1c(-c2ccccc2)n[nH]c1-c1ccccc1`: 225 to 226 °C; for `O=C(O)Cc1ccc(COc2cccc(-c3c(-c4ccccc4)cnc4c(C(F)(F)F)cccc34)c2)cc1`: 122 °C; for `FC(F)(F)c1cc(Cl)c2nc(CCl)cn2c1`: 75 to 77 °C.

In turn, `CN1CC(=O)N(SC(Cl)(Cl)Cl)C1=O` registered a melting point of 110 to 112 °C. Turning to `COC(=O)c1cccc([N+](=O)[O-])c1NCc1ccc(-c2ccccc2C#N)cc1`, the melting point lay within 140 to 141 °C. The same measure for `CC(C)(C)C(O)(c1ccccc1)c1cc(Cl)ccc1O` (centres undefined): 146 °C; for `COc1ccc(C(=O)c2sc(Nc3ccccc3)nc2NC(=O)Nc2ccc(F)cc2)cc1`: 177 to 178 °C; for `Cc1c(NC(=O)c2ccc(OC[C@@H]3CCCO3)cc2)ccc2cc(CN3CCC(C)(O)CC3)n(C)c12`: 140 to 141 °C. For the compound `O=C(CNCc1ccccc1)Nc1cccc2[nH]ccc12`, the melting point lay within 158 to 161 °C. The result for `CCOC(=O)/C(F)=C/c1ccc(N2C[C@H](CNC(C)=O)OC2=O)cc1` reads 161 to 163 °C; that for `Cc1nc(N2CCN(CC(C)C)C2=O)sc1C(N)=O`, 212 to 215 °C. The same measure for `CSc1ccc2c(c1)C(O)(C1CCN(C)CC1)c1ccc(F)cc1S2` (centres undefined): 180 to 189 °C. Regarding `COC(=O)CCCC(=N)Nc1[nH]c2ccccc2c1C(=O)OC`, the melting point was determined as 95 °C. On to `CCCc1nc(OC)c(N(C)C(=O)N2CCN(c3cc(OC)cc(OC)c3)CC2)cc1C`, for which the melting point was 106 to 107 °C. The same measure for `CC1=C(c2ccnc3ccccc23)SCC(=O)N1`: 174 to 176 °C. `C=CCC(Cc1ccc(OC)c(OCCc2ccccc2)c1)NC(=O)OC(C)(C)C` (centres undefined) gave a melting point of 94.5 to 95.3 °C. The same measure for `OCC1(c2c[nH]cn2)Cc2ccccc2C1`: 181 to 184 °C; for `CC(C)N1CC2CC(CN(C(=O)Cc3ccc([N+](=O)[O-])cc3)C2)C1`: 93 to 94 °C; for `O=Cc1ccc(-c2ccc(Br)cn2)cc1`: 120 to 121 °C. The same measure for `O=CNC1=NN(c2ccc(Cl)cc2)C(c2ccccc2)C1` (centres undefined): 164 to 166 °C; for `O=C(CCCCCC(=O)NCCc1c[nH]c2ccccc12)NO`: 140 to 142 °C. For `COc1cccc2c(Nc3ccc(O)cc3C)c(C(=O)C(C)C)cnc12`, the melting point lay within 243 to 245 °C. The result for `CCOC(=O)c1ccc(NC(=O)C2Cc3cc(SC)ccc3C(=O)CS2)cc1` (centres undefined) reads 236 to 237 °C; that for `O=[N+]([O-])c1ccc(Sc2cccc3cnccc23)cc1NCc1ccccc1`, 153 to 154 °C. Compound `CCCc1c(OCC2Cc3cc(CC(=O)OC)ccc3O2)ccc(C(C)=O)c1O` (centres undefined) gave a melting point of 77 to 78 °C. The result for `COc1nc(C)c(C)nc1N(C)C(=O)N1CCN(c2cc(Cl)cc(Cl)c2)CC1` reads 97 to 99 °C; that for `O=C(Nc1ccccc1S(=O)(=O)c1ccccc1)N[C@@H](Cc1ccc(Oc2nccc3ccncc23)cc1)C(=O)O`, 164 °C; that for `O=C1CC2(CCCC2)c2ccc([N+](=O)[O-])cc21`, 104 °C.

As to `CC(Oc1ccc(Cl)cc1)c1ccnc2ncnn12` (centres undefined), the melting point fell in the range of 98 to 99 °C. The same measure for `CC(CC1CCCCC1)C(=O)COS(=O)(=O)c1ccccc1` (centres undefined): 51 to 52 °C; for `CN1CCCN(Cc2nc(-c3ccc4c(c3)Nc3ccccc3S4)cs2)CC1`: 135 to 137 °C; for `CCCN(CCC)S(=O)(=O)c1ccc(C(CC2CCCC2)C(=O)Nc2nc3ccc(OC)nc3s2)cc1` (centres undefined): 64 to 66 °C. The result for `N#Cc1ccc(OC(Cc2ccc(OCCNC(=O)c3ccc(-c4ccccn4)cc3)cc2)C(=O)O)cc1` (centres undefined) reads 92 to 93 °C; that for `CCOC(=O)Cc1sc(Sc2cccc(C(=O)OCC)n2)nc1C`, 73 to 75 °C; that for `O=C(Nc1cnc2ccccc2c1)c1cc2cc(F)ccc2n1Cc1cccc(F)c1`, 244 to 246 °C. The same measure for `COC(=O)c1ccc(Br)cc1CSC`: 79.3 °C; for `CCOC(=O)c1cn2c3c(c(-c4cc(C)nc(C)c4)c(F)cc3c1=O)OC[C@@H]2C`: 267 to 273 °C. As to `CC(c1ccncc1Cl)C(O)(Cn1cncn1)c1ccc(F)cc1F` (centres undefined), the melting point lay in the range of 182 to 184 °C. For `CC(=O)Nc1ccc(Sc2cccn3nc(Nc4ccc(C5CCN(C(=O)OC(C)(C)C)CC5)cc4)nc23)cc1`, the melting point fell in the range of 226 to 228 °C. `O=c1oc(-c2cc(C(F)(F)F)cc(C(F)(F)F)c2)ns1` displayed a melting point of 61 to 62.5 °C. Regarding `CC(C)n1nc(-c2ccc(O)cc2)c2sccc2c1=O`, the melting point is 256 to 257 °C. Consider `O=S(=O)(c1ccc(F)cc1)N1CCOCC1`, for which the melting point was in the range of 106 to 107 °C. The compound `CCc1nc2cc(F)ccc2c(=O)n1NC(=O)C(C)c1ccccc1` (centres undefined) gave a melting point of 57 to 63 °C. The same measure for `CCOC(=O)CCC1(c2c[nH]cn2)Cc2ccccc2C1=O` (centres undefined): 162 to 165 °C; for `CCCCCCCCNCC(O)COc1ccc(SC)cc1C` (centres undefined): 59 to 60 °C.

For `COc1ccc2cc(CCl)c(CCl)cc2c1Cl`, the melting point amounted to 103 °C. The same measure for `COc1cc2c(cc1C)C1(CO2)C(=O)N(CC2CCCO2)c2ccccc21` (centres undefined): 151 to 153 °C; for `CC(=O)NCc1cc(Br)cc2[nH]c(=O)c(=O)[nH]c12`: above 300 °C. `CC(C)(C)c1cc(C(=O)NCc2cccc(N)c2)cc(C(C)(C)C)c1O` displayed a melting point of 171 to 172 °C.

With `O=C1CCC2=C1C(c1ccc(Br)c(Br)c1)C1=C(CCS1)N2` (centres undefined), the melting point is above 260 °C.

The compound `Cc1cnc2[nH]cc(/C=C3\N=C(N(C)CC(C)C)NC3=O)c2c1` registered a melting point of 287 to 289 °C. The result for `CN(C)CCCCN1CCOc2cc3ncc(C#N)c(Nc4ccc(F)c(Cl)c4)c3cc21` reads 105 °C; that for `Cc1nc(Cc2ccccc2)c2c(c1O)COC2`, 212 to 214 °C; that for `O=C1c2ccccc2C(=O)N1CCOc1cccc2c1CCC2`, 128 to 132 °C.

In turn, `Cc1cccc(C(=O)CC(Cc2ccccc2)C(=O)O)c1` (centres undefined) registered a melting point of 158 to 161 °C. In the case of `CCCCCCCCCCN1C(=O)C=CC1=O`, the melting point was 48 to 49 °C.

`CCCCc1nc(COC)c(C(=O)OC)n1Cc1ccc(-c2ccccc2C(=O)O)cc1` showed a melting point of 106 to 110 °C.

As to `CC(C)(C)OC(=O)NC(CC(=O)ON1C(=O)CCC1=O)c1ccc(-c2ccccc2)cc1` (centres undefined), the melting point stood at 161 °C. The result for `O=C(NC(CCCN1CCN(c2ncc(F)cn2)CC1)c1ccc(F)cc1)c1ccc(F)cc1` (centres undefined) reads 147 to 148 °C.
